Assay results taken from US7572579B2, “Screening method for a ribonuclease H inhibitor of a reverse transcriptase” (priority 2004, dated 2009).
Read-outs that look alike come from different tables or passages of the source.

How the values were obtained:
virus proliferation = settings: reported in literature; cited from earlier work
[1] = biological target: T1, RNase H activity of wild type reverse transcriptase of HIV (Human immunodeficiency virus type 1 group M subtype B, UniProt P04585); settings: wild type RT, with preincubation
[2] = biological target: T2, RNase H activity of Y188L mutant enzyme of HIV (Human immunodeficiency virus type 1 group M subtype B, UniProt P04585, Y775L); experiment: biochemical
[3] = biological target: polymerase activity of wild type reverse transcriptase of HIV (Human immunodeficiency virus type 1 group M subtype B, UniProt P04585); experiment: biochemical; settings: Polymerase IC50, wild type RT
[4] = biological target: T1, RNase H activity of wild type reverse transcriptase of HIV; experiment: biochemical
[5] = biological target: T2, RNase H activity of Y188L mutant enzyme of HIV; settings: with preincubation
[6] = biological target: polymerase activity of Y188L mutant enzyme of HIV (Human immunodeficiency virus type 1 group M subtype B, UniProt P04585, Y775L); experiment: biochemical
[7] = with preincubation, with metal cofactors
[8] = with preincubation, without metal cofactors

In the case of `O=C(O)C(=O)CC(=O)c1ccc(NC(=O)c2ccccc2)s1` [Compound 1, 4-[5-(benzoylamino)thien-2-yl]-2,4-dioxobutanoic acid], the “inhibition of virus proliferation in cell-based assay” value (virus proliferation) is given as “can not inhibit virus proliferation”.
In the case of `Cc1ccc(C(=O)Nc2ccc(S(=O)(=O)O)c3cc(S(=O)(=O)O)cc(S(=O)(=O)O)c23)cc1NC(=O)c1cccc(NC(=O)Nc2cccc(C(=O)Nc3cc(C(=O)Nc4ccc(S(=O)(=O)O)c5cc(S(=O)(=O)O)cc(S(=O)(=O)O)c45)ccc3C)c2)c1` [suramin, Suramin sodium], the “RNaseH IC50” value ([1]; with metal cofactors) is reported as “≈POL”, the “RNaseH IC50” value ([1]; without metal cofactors) is reported as “≈POL” and the IC50 [2] is reported as over 77.1 µM. For the same compound, the IC50 [3, 7] was 2.47 µM, the IC50 [3, 8] was 16.2 µM and the IC50 ([3]; without preincubation) was over 77.1 µM. For the same compound, the IC50 [4] was over 77.1 µM, the “RNaseH IC50” value ([5]; with metal cofactors) was “≈POL” and the “RNaseH IC50” value ([5]; without metal cofactors) was “≈POL”. The IC50 [6, 7] was 2.47 µM, the IC50 [6, 8] was 10 µM and the IC50 ([6]; without preincubation) was over 77.1 µM.
